# Measured values: patent US20100056497A1, “AMIDE DERIVATIVE” (DAINIPPON SUMITOMO PHARMA CO., LTD, priority 2007, published 2010)
# Structures can show the parent of a compound that is named as a salt.
# Target: T1, Recombinant human renin (Homo sapiens, UniProt P00797)
# T1 sequence (P00797 67-406): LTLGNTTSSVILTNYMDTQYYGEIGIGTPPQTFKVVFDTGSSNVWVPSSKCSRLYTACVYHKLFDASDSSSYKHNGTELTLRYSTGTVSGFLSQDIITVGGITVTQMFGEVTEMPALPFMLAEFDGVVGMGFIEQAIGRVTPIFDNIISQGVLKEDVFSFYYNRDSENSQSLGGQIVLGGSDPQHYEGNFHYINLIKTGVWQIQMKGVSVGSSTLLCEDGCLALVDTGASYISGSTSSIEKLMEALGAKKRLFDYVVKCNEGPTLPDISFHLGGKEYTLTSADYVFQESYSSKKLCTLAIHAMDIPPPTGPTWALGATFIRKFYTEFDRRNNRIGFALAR
# Assay: In vitro renin inhibitory activity assay (fluorescence, FRET peptide substrate)
# Format: biochemical
# Details: 37° C., one hour, substrate 4 μM, pH 7.4
# Description: In Vitro Renin Inhibitory Activity Assay
# Recombinant human renin (50 ng) was reacted in 0.1M BEPES buffer (pH 7.4) containing 0.1M NaCl, 1 mM EDTA and 0.1 mg/mL BSA together with a substrate and a test compound at 37° C. for one hour. As the substrate, Arg-Glu(EDANS)-Ile-His-Pro-Phe-His-Leu-Val-Ile-His-Thr-Lys(DABCYL)-Arg or DABCYL-γ-Abu-Ile-His-Pro-Phe-His-Leu-Val-Ile-His-Thr-EDANS was added in such an amount so that the final concentration thereof became 4 μM. The elevated fluorescence intensity at the exciting wavelength 340 nm and the fluorescence wavelength 500 nm was measured by a fluorescence plate reader. The concentration of a test compound to be needed to inhibit an enzyme activity in the presence of a test compound in plural concentrations by 50% was calculated as an IC50 value.
# The amino acid sequence disclosed in Seq ID:1 is an amino acid sequence used in the renin inhibitory activity assay.
# The amino acid sequence disclosed in Seq ID:2 is an amino acid sequence used in the renin inhibitory activity assay.
row,Structure (SMILES),IC50 [nM]
1,"CCOC(=O)C[C@H]1CC[C@@H](N(C(=O)c2ccc(OC)c(OCCCOC)c2)C(C)C)CN1 (racemic) [Example 14, Ethyl ((rac.)-(2R,5R)-5-{isopropyl[4-methoxy-3-(3-methoxypropoxy)benzoyl]-amino}piperidin-2-yl)acetate]",930
2,"CCCN(CC1CC1)C(=O)C[C@H]1CC[C@@H](N(C(=O)c2ccc(OC)c(OCCCOC)c2)C(C)C)CN1 (racemic) [Example 20, N-((rac.)-(3R,6R)-6-{2-[(Cyclopropylmethyl)(propyl)amino]-2-oxoethyl}piperidin-3-yl)-N-isopropyl-4-methoxy-3-(3-methoxypropoxy)benzamide hydrochloride]",420
3,"CCN(C(=O)C[C@H]1CC[C@@H](N(C(=O)c2ccc(OC)c(OCCCOC)c2)C(C)C)CN1)C(C)C (racemic) [Example 22, N-((rac.)-(3R,6R)-6-{2-[Ethyl(isopropyl)amino]-2-oxoethyl}piperidin-3-yl)-N-isopropyl-4-methoxy-3-(3-methoxypropoxy)benzamide hydrochloride]",480
4,"COCCCOc1cc(C(=O)N(C(C)C)[C@@H]2CC[C@@H](CCN(C(=O)Cc3ccccc3)C3CC3)NC2)ccc1OC (racemic) [Example 23, N-((rac.)-(3R,6S)-6-{2-[Cyclopropyl(phenylacetyl)amino]ethyl}piperidin-3-yl)-N-isopropyl-4-methoxy-3-(3-methoxypropoxy)benzamide hydrochloride]",330
5,"COCCCOc1cc(C(=O)N(C(C)C)C2CNC[C@@H](COC(=O)NCCc3ccccc3)C2)ccc1OC (mixture of isomers) [Example 31, ((rac.)-(3S,5R)-5-{Isopropyl[4-methoxy-3-(3-methoxypropoxy)benzoyl]amino}-piperidin-3-yl)methyl(2-phenylethyl)carbamate hydrochloride]",240
6,"COCCCOc1cc(C(=O)N(C(C)C)C2CNC[C@@H](C(=O)N(C)Cc3ccccc3)C2)ccc1OC (mixture of isomers) [Example 41, (rac.)-(3S,5R)-N-Benzyl-5-{isopropy[4-methoxy-3-(3-methoxyproroxy)benzoyl]-amino}-N-methylpiperidine-3-carboxamide hydrochloride]",430
7,"COCCCOc1cc(C(=O)N(C(C)C)[C@H]2CNC[C@@H](CNC(=O)OCc3ccccc3)C2)ccc1OC (racemic) [Example 43, Benzyl [((rac.)-(3S,5R)-5-{isopropyl[4-methoxy-3-(3-methoxypropoxy)benzoyl]-amino}piperidin-3-yl)methyl]carbamate hydrochloride]",770
8,"COCCCOc1cc(C(=O)N(C(C)C)[C@H]2CNCC[C@@H]2c2ccccc2)ccc1OC (racemic) [Example 45, N-Isopropyl-4-methoxy-3-(3-methoxypropoxy)-N-[(rac.)-(3R,4R)-4-phenylpiperidin-3-yl]benzamide hydrochloride]",410
9,"COCCCOc1cc(C(=O)N(C(C)C)[C@H]2CNC[C@@H](COc3ccccc3-c3ccccc3)C2)ccc1OC (racemic) [Example 46, N-{(rac.)-(3R,5S)-5-[(Biphenyl-2-yloxy)methyl]piperidin-3-yl}-N-isopropyl-4-methoxy-3-(3-methoxypropoxy)benzamide hydrochloride]",790
10,"COCCCOc1cc(C(=O)N(C(C)C)[C@H]2CNC[C@@H](COc3cccc(-c4ccccc4)c3)C2)ccc1OC (racemic) [Example 48, N-{(rac.)-(3R,5S)-5-[(Biphenyl-3-yloxy)methyl]piperidin-3-yl}-N-isopropyl-4-methoxy-3-(3-methoxypropoxy)benzamide hydrochloride]",620
11,"COCCCOc1cc(C(=O)N(C(C)C)[C@H]2CNC[C@@H](COc3cccc(Oc4ccccc4)c3)C2)ccc1OC (racemic) [Example 49, N-Isopropyl-4-methoxy-3-(3-methoxypropoxy)-N-{(rac.)-(3R,5S)-5-[(3-phenoxy-phenoxy)methyl]piperidin-3-yl}benzamide hydrochloride]",740
12,"COCCCOc1cc(C(=O)N(C(C)C)[C@H]2CNC[C@@H](COc3cccc(OCc4ccccc4)c3)C2)ccc1OC (racemic) [Example 50, hydrochloride]",540
13,"COCCCOc1cc(C(=O)N(C(C)C)[C@@H]2CC[C@H](CC(=O)N(C(C)C)C3CCCCC3)NC2)ccc1OC (racemic) [Example 51, N-((rac.)-(3R,6R)-6-{2-[Cyclohexyl(isopropyl)amino]-2-oxoethyl}piperidin-3-yl)-N-isopropyl-4-methoxy-3-(3-methoxypropoxy)benzamide hydrochloride]",500
14,"COCCCOc1cc(C(=O)N(C(C)C)[C@@H]2CC[C@H](CC(=O)NC3CC3)NC2)ccc1OC (racemic) [Example 52, N-{ (rac.)-(3R,6R)-6-[2-(Cyclopropylamino)-2-oxoethyl]piperidin-3-yl)-N-isopropyl-4-methoxy-3-(3-methoxypropoxy)benzamide hydrochloride]",590
15,"COCCCOc1cc(C(=O)N(C(C)C)[C@@H]2CC[C@H](CCN(C(=O)Cc3ccccc3)C(C)C)NC2)ccc1OC (racemic) [Example 55, N-Isopropyl-N-((rac.)-(3R,6R)-6-{2-[isopropyl(phenylacetyl)amino]ethyl}piperidin-3-yl)-4-methoxy-3-(3-methoxypropoxy)benzamide hydrochloride]",690
16,"COCCCOc1cc(C(=O)N(C(C)C)[C@H]2CNC[C@H](COC(=O)NC(C)C)C2)ccc1OC (racemic) [Example 57, ((rac.)-(3R,5R)-5-{Isopropyl[4-methoxy-3-(3-methoxypropoxy)benzoyl]amino}-piperidin-3-yl)methyl isopropylcarbamate hydrochloride]",830
17,CCN(CCc1ccccc1)C(=O)OC[C@@H]1CNC[C@H](N(C(=O)c2ccc(OC)c(OCCCOC)c2)C(C)C)C1 (racemic) [Example 58],150
18,CCCN(CCc1ccccc1)C(=O)OC[C@@H]1CNC[C@H](N(C(=O)c2ccc(OC)c(OCCCOC)c2)C(C)C)C1 (racemic) [Example 59],110
19,"COCCCOc1cc(C(=O)N(C[C@@H]2CCNC2)C(C)C)ccc1OC [Compound B, reference compound]",2300
20,"COCCCOc1cc(C(=O)N(C(C)C)[C@@H]2CCCNC2)ccc1OC [Example 1, N-Isopropyl-4-methoxy-3-(3-methoxypropoxy)-N-[(3R)-piperidin-3-yl]benzamide hydrochloride]",330
21,"COCCCOc1cc(C(=O)N(C(C)C)[C@@H]2CCCNC2)c(C)cc1OC [Example 27, N-Isopropyl-4-methoxy-5-(3-methoxypropoxy)-2-methyl-N-[(3R)-piperidin-3-yl]-benzamide]",190
22,"COCCCOc1cc(C(=O)N(C(C)C)[C@@H]2CCCNC2)c(Cl)cc1OC [Example 53, 2-Chloro-N-isopropyl-methoxy-5-(3-methoxypropoxy)-N-[(3R)-piperidin-3-yl]-benzamide hydrochloride]",220
23,"COCCCOc1cc(C(=O)N(C(C)C)[C@@H]2CC[C@H](CCN(C(=O)CCOC)C3CC3)NC2)ccc1OC [Example 64, N-((3R,6R)-6-{2-[Cyclopropyl(3-methoxypropanoyl)amino]ethyl}piperidin-3-yl)-N-isopropyl-4-methoxy-3-(3-methoxypropoxy)benzamide hydrochloride]",16.8
24,"COCCCOc1cc(C(=O)N(C(C)C)[C@@H]2CC[C@H](CCN(C(=O)CCCO)C3CC3)NC2)ccc1OC [Example 66, N-((3R,6R)-6-{2-[Cyclopropyl(4-hydroxybutanoyl)amino]ethyl}piperidin-3-yl)-N-isopropyl-4-methoxy-3-(3-methoxypropoxy)benzamide hydrochloride]",61
25,"COCCCOc1cc(C(=O)N(C(C)C)[C@@H]2CC[C@H](CCN(C(=O)CC(C)(C)O)C3CC3)NC2)ccc1OC [Example 67, N-((3R,6R)-6-{2-[Cyclopropyl(3-hydroxy-3-methylbutanoyl)amino]ethyl}piperidin-3-yl)-N-isopropyl-4-methoxy-3-(3-methoxypropoxy)benzamide hydrochloride]",12.9
26,"COCCCOc1cc(C(=O)N(C(C)C)[C@@H]2CC[C@H](CCN(C(=O)C=C(C)C)C3CC3)NC2)ccc1OC [Example 68, N-((3R,6R-6-{2-[Cyclopropyl(3-methyl-2-butenoyl)amino]ethyl}piperidin-3-yl)-N-isopropyl-4-methoxy-3-(3-methoxypropoxy)benzamide hydrochloride]",6.7
27,"COCCCOc1cc(C(=O)N(C(C)C)[C@@H]2CC[C@H](CCN(C(=O)CC(C)(C)C(N)=O)C3CC3)NC2)ccc1OC [Example 69, N^4-Cyclopropyl-N^4-[2-((2R,5R)-5-{isopropyl[4-methoxy-3-(3-methoxypropoxy)-benzoyl]amino}piperidin-2-yl)ethyl]-2,2-dimethylsuccinamide trifluoroacetate]",27.9
